Measurements published in patent US8076487B2, “Pyridone derivative and herbicide” (Kumiai Chemical Industry Co., Ltd., priority 2006, dated 2011).

Key:
Format in all cases: in vivo
[1] = system: barnyardgrass (Echinochloa crus-galli (L.) P. Beauv. var. crus-galli); assay: Test Example 3: herbicidal effect by application to upland field (foliage treatment); details: 14th day after application; for herbicidal effect, Barnyardgrass: foliage treatment, 1,000 g active ingredient per 1 hectare, greenhouse; for herbicidal effect (index), Barnyardgrass: foliage treatment, plants grown two weeks, 1,000 g active ingredient per hectare
Procedure, shortened: (§1)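 Upland foliage test in greenhouse pots of field soil: seedlings sprayed at two weeks post-sowing with 1,000 g/ha active ingredient (wettable powder, 1,000 L water/ha). Scored 14 d after application.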

[2] = system: green foxtail (Setaria viridis (L.) P. Beauv.); assay: as above; details: 14th day after application; for herbicidal effect, Green Foxtail: foliage treatment, 1,000 g active ingredient per 1 hectare, greenhouse; for herbicidal effect (index), Green Foxtail: foliage treatment, plants grown two weeks, 1,000 g active ingredient per hectare
Procedure, shortened: as §1

[3] = system: velvetleaf (Abutilon theophrasti medicus); assay: as above; details: 14th day after application; for herbicidal effect, Velvetleaf: foliage treatment, 1,000 g active ingredient per 1 hectare, greenhouse; for herbicidal effect (index), Velvetleaf: foliage treatment, plants grown two weeks, 1,000 g active ingredient per hectare
Procedure, shortened: as §1

[4] = system: slender amaranth (Amaranthus viridis L.); assay: as above; details: 14th day after application; for herbicidal effect, Slender Amaranth: foliage treatment, 1,000 g active ingredient per 1 hectare, greenhouse; for herbicidal effect (index), Slender Amaranth: foliage treatment, plants grown two weeks, 1,000 g active ingredient per hectare
Procedure, shortened: as §1

[5] = system: barnyardgrass (Echinochloa crus-galli (L.) P. Beauv. var. crus-galli); assay: Test Example 2: herbicidal effect by soil application to upland field; details: soil surface spray, upland field soil, 1,000 g active ingredient per hectare, 21st day after application
Procedure, shortened: (§2)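 Dose was 1,000 g active ingredient per hectare, applied as a wettable powder diluted in water and sprayed evenly over the soil of sown, covered pots at a 1,000 L/ha equivalent. Effect was judged by a standard scale 21 d later under greenhouse conditions.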

[6] = system: green foxtail (Setaria viridis (L.) P. Beauv.); assay: as above; details: soil surface spray, upland field soil, 1,000 g active ingredient per hectare, 21st day after application
Procedure, shortened: as §2

[7] = system: velvetleaf (Abutilon theophrasti medicus); assay: as above; details: soil surface spray, upland field soil, 1,000 g active ingredient per hectare, 21st day after application
Procedure, shortened: as §2

[8] = system: slender amaranth (Amaranthus viridis L.); assay: as above; details: soil surface spray, upland field soil, 1,000 g active ingredient per hectare, 21st day after application
Procedure, shortened: as §2

[9] = system: Japanese bulrush (Scirpus juncoides Roxb.); assay: Test Example 1: herbicidal effect by soil application to paddy field; details: for herbicidal effect, Scirpus juncoides Roxb.: paddy field soil application, active ingredient 1,000 g per 1 hectare, wettable powder added dropwise to water surface the day after sowing, examined on the 21st day after application
Procedure, shortened: (§3)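 Plants were sown in flooded (3 cm) paddy soil and evaluated for herbicidal effect 21 days after soil application in a greenhouse.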

[10] = system: heartshape false pickerelweed (Monochoria vaginalis (Burm.f.) C.Presl); assay: as above; details: for herbicidal effect, Monochoria vaginalis (Burm. f.) C. Presl: paddy field soil application, active ingredient 1,000 g per 1 hectare, wettable powder added dropwise to water surface the day after sowing, examined on the 21st day after application
Procedure, shortened: as §3

[11] = system: early watergrass (Echinochloa oryzicola Vasing); assay: as above; details: for herbicidal effect, Echinochloa oryzicola Vasing: paddy field soil application, active ingredient 1,000 g per 1 hectare, wettable powder added dropwise to water surface the day after sowing, examined on the 21st day after application
Procedure, shortened: as §3

[12] = soil application to paddy field, rated by standard of Table 34

SMILES: CCCCn1c(C(F)(F)F)ccc(C(=O)c2cnn(C)c2O)c1=O [IV-6]
- herbicidal effect, Barnyardgrass [1]: 5 (90% or more of herbicidal effect and crop phytotoxicity)
- herbicidal effect, Green Foxtail [2]: 5 (90% or more of herbicidal effect and crop phytotoxicity)
- herbicidal effect, Velvetleaf [3]: 5 (90% or more of herbicidal effect and crop phytotoxicity)
- herbicidal effect, Slender Amaranth [4]: 5 (90% or more of herbicidal effect and crop phytotoxicity)
- herbicidal effect (index), Barnyardgrass [5]: 5 (90% or more of herbicidal effect and crop phytotoxicity)
- herbicidal effect (index), Green Foxtail [6]: 5 (90% or more of herbicidal effect and crop phytotoxicity)
- herbicidal effect (index), Velvetleaf [7]: 5 (90% or more of herbicidal effect and crop phytotoxicity)
- herbicidal effect (index), Slender Amaranth [8]: 5 (90% or more of herbicidal effect and crop phytotoxicity)
- herbicidal effect, Scirpus juncoides Roxb. [9]: 5 (90% or more of herbicidal effect and crop phytotoxicity)
- herbicidal effect, Monochoria vaginalis (Burm. f.) C. Presl [10]: 5 (90% or more of herbicidal effect and crop phytotoxicity)
- herbicidal effect, Echinochloa oryzicola Vasing [11]: 5 (90% or more of herbicidal effect and crop phytotoxicity)

SMILES: O=C1CCCC(O)=C1C(=O)c1ccc(C(F)(F)F)n(-c2ccc(F)cc2F)c1=O [I-102]
- herbicidal effect (index), Barnyardgrass [1]: 5 (90% or more of herbicidal effect and crop phytotoxicity)
- herbicidal effect (index), Green Foxtail [2]: 5 (90% or more of herbicidal effect and crop phytotoxicity)
- herbicidal effect (index), Velvetleaf [3]: 5 (90% or more of herbicidal effect and crop phytotoxicity)
- herbicidal effect (index), Slender Amaranth [4]: 5 (90% or more of herbicidal effect and crop phytotoxicity)
- herbicidal effect (index), Barnyardgrass [5]: 5 (90% or more of herbicidal effect and crop phytotoxicity)
- herbicidal effect (index), Green Foxtail [6]: 5 (90% or more of herbicidal effect and crop phytotoxicity)
- herbicidal effect (index), Velvetleaf [7]: 5 (90% or more of herbicidal effect and crop phytotoxicity)
- herbicidal effect (index), Slender Amaranth [8]: 5 (90% or more of herbicidal effect and crop phytotoxicity)
- herbicidal effect, Scirpus juncoides Roxb. [9]: 5 (90% or more of herbicidal effect and crop phytotoxicity)
- herbicidal effect, Monochoria vaginalis (Burm. f.) C. Presl [10]: 5 (90% or more of herbicidal effect and crop phytotoxicity)
- herbicidal effect, Echinochloa oryzicola Vasing [11]: 5 (90% or more of herbicidal effect and crop phytotoxicity)

SMILES: CC(C)S(=O)(=O)Cn1c(C(F)(F)F)ccc(C(=O)C2=C(O)CCCC2=O)c1=O [I-54]
- herbicidal effect (index), Barnyardgrass [1]: 5 (90% or more of herbicidal effect and crop phytotoxicity)
- herbicidal effect (index), Green Foxtail [2]: 5 (90% or more of herbicidal effect and crop phytotoxicity)
- herbicidal effect (index), Velvetleaf [3]: 5 (90% or more of herbicidal effect and crop phytotoxicity)
- herbicidal effect (index), Slender Amaranth [4]: 5 (90% or more of herbicidal effect and crop phytotoxicity)
- herbicidal effect (index), Barnyardgrass [5]: 5 (90% or more of herbicidal effect and crop phytotoxicity)
- herbicidal effect (index), Green Foxtail [6]: 4 (70 to less than 90% of herbicidal effect and crop phytotoxicity)
- herbicidal effect (index), Velvetleaf [7]: 5 (90% or more of herbicidal effect and crop phytotoxicity)
- herbicidal effect (index), Slender Amaranth [8]: 5 (90% or more of herbicidal effect and crop phytotoxicity)
- herbicidal effect, Scirpus juncoides Roxb. [9]: 5 (90% or more of herbicidal effect and crop phytotoxicity)
- herbicidal effect, Monochoria vaginalis (Burm. f.) C. Presl [10]: 5 (90% or more of herbicidal effect and crop phytotoxicity)
- herbicidal effect, Echinochloa oryzicola Vasing [11]: 5 (90% or more of herbicidal effect and crop phytotoxicity)

SMILES: CC(=O)Oc1c(C(=O)c2ccc(C(F)(F)F)n(C)c2=O)cnn1C [IV-174]
- herbicidal effect, Barnyardgrass [1]: 5 (90% or more of herbicidal effect and crop phytotoxicity)
- herbicidal effect, Green Foxtail [2]: 5 (90% or more of herbicidal effect and crop phytotoxicity)
- herbicidal effect, Velvetleaf [3]: 5 (90% or more of herbicidal effect and crop phytotoxicity)
- herbicidal effect, Slender Amaranth [4]: 5 (90% or more of herbicidal effect and crop phytotoxicity)
- herbicidal effect (index), Barnyardgrass [5]: 5 (90% or more of herbicidal effect and crop phytotoxicity)
- herbicidal effect (index), Green Foxtail [6]: 5 (90% or more of herbicidal effect and crop phytotoxicity)
- herbicidal effect (index), Velvetleaf [7]: 5 (90% or more of herbicidal effect and crop phytotoxicity)
- herbicidal effect (index), Slender Amaranth [8]: 5 (90% or more of herbicidal effect and crop phytotoxicity)
- herbicidal effect, Scirpus juncoides Roxb. [9]: 5 (90% or more of herbicidal effect and crop phytotoxicity)
- herbicidal effect, Monochoria vaginalis (Burm. f.) C. Presl [10]: 5 (90% or more of herbicidal effect and crop phytotoxicity)
- herbicidal effect, Echinochloa oryzicola Vasing [11]: 5 (90% or more of herbicidal effect and crop phytotoxicity)

SMILES: O=C1CCCC(O)=C1C(=O)c1ccc2ccccc2n1 [Comparative Compound 2, reference compound]
- herbicidal effect, Barnyardgrass [1]: 0 (0 to less than 10% of herbicidal effect and crop phytotoxicity)
- herbicidal effect, Green Foxtail [2]: 0 (0 to less than 10% of herbicidal effect and crop phytotoxicity)
- herbicidal effect, Velvetleaf [3]: 5 (90% or more of herbicidal effect and crop phytotoxicity)
- herbicidal effect, Slender Amaranth [4]: 1 (10 to less than 30% of herbicidal effect and crop phytotoxicity)
- herbicidal effect (index), Barnyardgrass [5]: 3 (50 to less than 70% of herbicidal effect and crop phytotoxicity)
- herbicidal effect (index), Green Foxtail [6]: 0 (0 to less than 10% of herbicidal effect and crop phytotoxicity)
- herbicidal effect (index), Velvetleaf [7]: 2 (30 to less than 50% of herbicidal effect and crop phytotoxicity)
- herbicidal effect (index), Slender Amaranth [8]: 2 (30 to less than 50% of herbicidal effect and crop phytotoxicity)
- herbicidal effect (index), Scirpus juncoides Roxb. [9, 12]: 0 (0 to less than 10% of herbicidal effect and crop phytotoxicity)
- herbicidal effect (index), Monochoria vaginalis (Burm.f.) C.Presl [10, 12]: 0 (0 to less than 10% of herbicidal effect and crop phytotoxicity)
- herbicidal effect (index), Echinochloa oryzicola Vasing [11, 12]: 0 (0 to less than 10% of herbicidal effect and crop phytotoxicity)

SMILES: O=C1CCCC(O)=C1C(=O)c1ccc(C(F)(F)F)n(-c2ccc(F)cc2)c1=O [I-93]
- herbicidal effect (index), Barnyardgrass [1]: 5 (90% or more of herbicidal effect and crop phytotoxicity)
- herbicidal effect (index), Green Foxtail [2]: 5 (90% or more of herbicidal effect and crop phytotoxicity)
- herbicidal effect (index), Velvetleaf [3]: 5 (90% or more of herbicidal effect and crop phytotoxicity)
- herbicidal effect (index), Slender Amaranth [4]: 5 (90% or more of herbicidal effect and crop phytotoxicity)
- herbicidal effect (index), Barnyardgrass [5]: 5 (90% or more of herbicidal effect and crop phytotoxicity)
- herbicidal effect (index), Green Foxtail [6]: 5 (90% or more of herbicidal effect and crop phytotoxicity)
- herbicidal effect (index), Velvetleaf [7]: 5 (90% or more of herbicidal effect and crop phytotoxicity)
- herbicidal effect (index), Slender Amaranth [8]: 5 (90% or more of herbicidal effect and crop phytotoxicity)
- herbicidal effect, Scirpus juncoides Roxb. [9]: 5 (90% or more of herbicidal effect and crop phytotoxicity)
- herbicidal effect, Monochoria vaginalis (Burm. f.) C. Presl [10]: 5 (90% or more of herbicidal effect and crop phytotoxicity)
- herbicidal effect, Echinochloa oryzicola Vasing [11]: 5 (90% or more of herbicidal effect and crop phytotoxicity)

SMILES: O=C1CCCC(O)=C1C(=O)c1ccc(C(F)(F)F)n(CC2CC2)c1=O [I-20]
- herbicidal effect (index), Barnyardgrass [1]: 5 (90% or more of herbicidal effect and crop phytotoxicity)
- herbicidal effect (index), Green Foxtail [2]: 5 (90% or more of herbicidal effect and crop phytotoxicity)
- herbicidal effect (index), Velvetleaf [3]: 5 (90% or more of herbicidal effect and crop phytotoxicity)
- herbicidal effect (index), Slender Amaranth [4]: 5 (90% or more of herbicidal effect and crop phytotoxicity)
- herbicidal effect (index), Barnyardgrass [5]: 5 (90% or more of herbicidal effect and crop phytotoxicity)
- herbicidal effect (index), Green Foxtail [6]: 5 (90% or more of herbicidal effect and crop phytotoxicity)
- herbicidal effect (index), Velvetleaf [7]: 5 (90% or more of herbicidal effect and crop phytotoxicity)
- herbicidal effect (index), Slender Amaranth [8]: 5 (90% or more of herbicidal effect and crop phytotoxicity)
- herbicidal effect, Scirpus juncoides Roxb. [9]: 5 (90% or more of herbicidal effect and crop phytotoxicity)
- herbicidal effect, Monochoria vaginalis (Burm. f.) C. Presl [10]: 5 (90% or more of herbicidal effect and crop phytotoxicity)
- herbicidal effect, Echinochloa oryzicola Vasing [11]: 5 (90% or more of herbicidal effect and crop phytotoxicity)

SMILES: CCOCCn1c(C(F)(F)F)ccc(C(=O)C2=C(O)C3CCC(C3)C2=O)c1=O (stereo not shown) [III-20]
- herbicidal effect, Barnyardgrass [1]: 5 (90% or more of herbicidal effect and crop phytotoxicity)
- herbicidal effect, Green Foxtail [2]: 5 (90% or more of herbicidal effect and crop phytotoxicity)
- herbicidal effect, Velvetleaf [3]: 5 (90% or more of herbicidal effect and crop phytotoxicity)
- herbicidal effect, Slender Amaranth [4]: 5 (90% or more of herbicidal effect and crop phytotoxicity)
- herbicidal effect (index), Barnyardgrass [5]: 5 (90% or more of herbicidal effect and crop phytotoxicity)
- herbicidal effect (index), Green Foxtail [6]: 5 (90% or more of herbicidal effect and crop phytotoxicity)
- herbicidal effect (index), Velvetleaf [7]: 5 (90% or more of herbicidal effect and crop phytotoxicity)
- herbicidal effect (index), Slender Amaranth [8]: 5 (90% or more of herbicidal effect and crop phytotoxicity)
- herbicidal effect, Scirpus juncoides Roxb. [9]: 5 (90% or more of herbicidal effect and crop phytotoxicity)
- herbicidal effect, Monochoria vaginalis (Burm. f.) C. Presl [10]: 5 (90% or more of herbicidal effect and crop phytotoxicity)
- herbicidal effect, Echinochloa oryzicola Vasing [11]: 5 (90% or more of herbicidal effect and crop phytotoxicity)
